Measured values taken from ChEMBL document CHEMBL1128496, “Anti-AIDS (acquired immune deficiency syndrome) agents. 17. New brominated hexahydroxybiphenyl derivatives as potent anti-HIV agents” (J Med Chem, 1995).
≈ marks a conversion by molar mass, not a printed value. Where “and” joins values, the source holds several entries; their conditions need not be identical. Equal entries are not always repeated.

Columns and labels:
[1] = Anti-HIV activity was evaluated by measuring the growth inhibition of acutely infected H9 lymphocytes as EC50.; assay type: functional; details: Human immunodeficiency virus 1
[2] = Anti-HIV activity was evaluated by measuring the growth inhibition of acutely infected H9 lymphocytes as IC50.; assay type: functional; details: Human immunodeficiency virus 1
[3] = Anti-HIV activity evaluated by measuring the growth inhibition of acutely infected H9 lymphocytes as therapeutic index.; set-up: species or system Human immunodeficiency virus 1; details: for selectivity ratio: human immunodeficiency virus 1, H9 lymphocytes acutely infected with HIV-1, read-out: TI; for TI: Human immunodeficiency virus 1
[4] = Effect against HIV-1 expression in a chronically infected human T cell line ACH-2; assay type: functional, Human immunodeficiency virus 1
[5] = Effect against HIV-1 expression in a chronically infected human T cell line ACH-2i n the presence of PMA(phorbol 12-myristate 13-acetate); assay type: functional, Human immunodeficiency virus 1
H9 [6] = experiment: Anti-HIV activity of compound was evaluated by measuring the growth inhibition of acutely infected H9 lymphocytes.; assay type: functional, cell-based; details: Homo sapiens
[7] = Effect against HIV-1 chronically infected promonocytic cell line U1; assay type: functional, Human immunodeficiency virus 1
[8] = Effect against HIV-1 chronically infected promonocytic cell line U1 in the presence of PMA(phorbol 12-myristate 13-acetate); assay type: functional, Human immunodeficiency virus 1
ACH-2 cell line [9] = experiment: Effect against HIV-1 chronically infected […] cell line ACH-2 cells; assay type: functional, Homo sapiens
ACH-2 cell line [10] = experiment: Effect against HIV-1 chronically infected […] cell line ACH-2 cells in the presence of PMA(phorbol 12-myristate 13-acetate); assay type: functional, Homo sapiens
H9 [11] = experiment: Anti-HIV activity of compound was evaluated by measuring the growth inhibition of acutely infected H9 lymphocytes as IC50.; assay type: functional, Homo sapiens
[12] = Effect against HIV-1 expression in a chronically infected human T cell line ACH-2 in the presence of PMA(phorbol 12-myristate 13-acetate); assay type: functional, Human immunodeficiency virus 1

Row | SMILES | EC50 [1] | IC50 [2] | selectivity ratio [3] | further results
1 | CCCCCCOC(=O)c1c(Br)c(OC)c2c(c1-c1c3c(c(OC)c(Br)c1C(=O)OCCCCCC)OCO3)OCO2 | 2 µg/mL (≈ 2.79 µM) | > 100 µg/mL | > 50 | 
2 | COc1c(Br)c(C(=O)O)c(-c2c3c(c(OC)c(Br)c2C(=O)NCCN2CCNCC2)OCO3)c2c1OCO2 | 30 µg/mL (≈ 45.5 µM) | > 100 µg/mL | > 3.3 | 
3 | COC(=O)c1c(Br)c(OC(=O)c2ccccc2)c(OC(=O)c2ccccc2)c(OC)c1-c1c(OC)c(OC(=O)c2ccccc2)c(OC(=O)c2ccccc2)c(Br)c1C(=O)OC | > 100 µg/mL | > 100 µg/mL | 1 | 
4 | COC(=O)c1c(Br)c(OC)c2c(c1-c1c3c(c(OC)c(Br)c1C(=O)OC)OCO3)OCO2 |  |  | > 480 | p24 [4]: 169 pg/mL and 141 pg/mL and 135 pg/mL and 142 pg/mL and 122 pg/mL and 123 pg/mL; p24 [5]: 31590 pg/mL and 35635 pg/mL and 30426 pg/mL and 32768 pg/mL and 29173 pg/mL and 27699 pg/mL; EC50 (H9 [6]): 0.23 µg/mL (≈ 0.399 µM); p24 [7]: 15 pg/mL and 16 pg/mL and 14 pg/mL and 13 pg/mL and 17 pg/mL; p24 [8]: 10131 pg/mL and 10598 pg/mL and 11482 pg/mL and 9850 pg/mL and 8320 pg/mL and 7590 pg/mL
5 | Br.COc1c(Br)c(C(=O)O)c(-c2c3c(c(OC)c(Br)c2C(=O)NCCN2CCCC2)OCO3)c2c1OCO2 | > 100 µg/mL | > 100 µg/mL | 1 | 
6 | CCOC(=O)c1c(Br)c(OC)c2c(c1-c1c3c(c(OC)c(Br)c1C(=O)O)OCO3)OCO2 | 60 µg/mL (≈ 104 µM) | > 100 µg/mL | > 1.7 | 
7 | Cc1cn([C@H]2C[C@H](N=[N+]=[N-])[C@@H](CO)O2)c(=O)[nH]c1=O [ZIDOVUDINE] |  |  |  | p24 (ACH-2 cell line [9]): 167 pg ml-1 [middle of 4 runs]; p24 (ACH-2 cell line [10]): 19814 pg/mL and 30758 pg/mL and 31808 pg/mL and 31360 pg/mL; p24 [7]: 22 pg/mL and 13 pg/mL and 12 pg/mL and 18 pg/mL; p24 [8]: 9338 pg/mL and 9299 pg/mL and 8218 pg/mL and 8070 pg/mL
8 | COc1c(OC(=O)c2ccccc2)c(OC(=O)c2ccccc2)c(Br)c(CO)c1-c1c(CO)c(Br)c(OC(=O)c2ccccc2)c(OC(=O)c2ccccc2)c1OC | > 100 µg/mL | > 100 µg/mL | 1 | 
9 | COc1c(Br)c(C(=O)O)c(-c2c3c(c(OC)c(Br)c2C(=O)O)OCO3)c2c1OCO2.OCCN1CCCC1.OCCN1CCCC1 | 17 µg/mL | > 20 µg/mL |  | TI [3]: < 1.2
10 | COc1c(Br)c(C(=O)O)c(-c2c3c(c(OC)c(Br)c2C(=O)OCC[N+](C)(C)C)OCO3)c2c1OCO2.[Cl-] | > 100 µg/mL | > 100 µg/mL | 1 | 
11 | CCOC(=O)c1c(Br)c(OC)c2c(c1-c1c3c(c(OC)c(Br)c1C(=O)[O-])OCO3)OCO2.[Na+] |  | > 100 µg/mL |  | 
12 | COC(=O)c1cc(OC(=O)c2ccccc2)c(OC(=O)c2ccccc2)c(OC)c1-c1c(OC)c(OC(=O)c2ccccc2)c(OC(=O)c2ccccc2)c(Br)c1C(=O)OC | > 100 µg/mL | > 100 µg/mL | 1 | 
13 | COc1c(Br)c(C(=O)[O-])c(-c2c3c(c(OC)c(Br)c2C(=O)[O-])OCO3)c2c1OCO2.[Na+].[Na+] | > 100 µg/mL | > 100 µg/mL | 1 | 
14 | COc1c(Br)c(C(=O)O)c(-c2c3c(c(OC)c(Br)c2C(=O)O)OCO3)c2c1OCO2 | > 100 µg/mL | > 100 µg/mL |  | TI [3]: 1
15 | COc1c(OC(=O)c2ccccc2)c(OC(=O)c2ccccc2)cc(CO)c1-c1c(CO)c(Br)c(OC(=O)c2ccccc2)c(OC(=O)c2ccccc2)c1OC | 100 µg/mL (≈ 120 µM) | > 100 µg/mL | > 1 | 
16 | COc1c2c(c3c(c1Br)c(=O)oc(=O)c1c(Br)c(OC)c4c(c13)OCO4)OCO2 |  |  |  | C50 (H9 [11]): >100 µg/mL
17 | COC(=O)c1cc(OC)c2c(c1-c1c3c(c(OC)c(Br)c1C(=O)OC)OCO3)OCO2 |  |  |  | p24 [4]: 148 pg ml-1 [middle of 6 runs]; p24 [12]: 23373 pg/mL; p24 [5]: 46208 pg/mL and 28634 pg/mL and 24832 pg/mL and 26957 pg/mL and 27699 pg/mL; p24 [8]: 10746 pg/mL and 13376 pg/mL and 8774 pg/mL and 7616 pg/mL and 7200 pg/mL and 8314 pg/mL
18 | COC(=O)c1cc(OC)c2c(c1-c1c(C(=O)OC)cc(OC)c3c1OCO3)OCO2 [BIFENDATE] | 5 µg/mL (≈ 12 µM) | > 100 µg/mL | > 20 | 
